{"source": "patent US8771744B2", "about": "“Barrier composition” (Prosonix Limited, priority 2009, dated 2014)", "assay": "Particle size distribution (Sympatec) of spray dried, ultrasound treated particles", "type": "physicochemical", "from_the_text": "Preferably the active particles of the invention have a volume diameter of less than 10 μm, more preferably at least 90 wt % of the active ingredient particles in a given composition have a diameter equal to or lower than 10 μm as determined by measuring the characteristic equivalent sphere diameter, known as volume diameter, by laser diffraction as described above, preferably using a Malvern or equivalent apparatus. The parameters taken into consideration are the volume diameters (VD) in microns of 10%, 50% and 90% of the particles expressed as d(10), d(50) and d(90), respectively, which correspond to the mass diameter assuming a size independent density for the particles.\nFenoterol hydrobromide (5 g) was dissolved in 100 mL of methanol. The samples of Fenoterol hydrobromide powder collected in the ultrasonic chamber were produced using a Büchi-290 laboratory-scale spray dryer (Büchi, Switzerland). The solution was atomized using nitrogen at 7 bar flowing at approximately at 10 Lpm (Liter/minute). The aspirator was set at 100% and flow rate of solution was set to […]. The gas temperature was set to 120° C. Fenoterol hydrobromide particles were collected from both the cyclone separator and the PTFE bag filter assembly. The resultant amorphous particles contained 3000 ppm (0.3% w/w) residual methanol. The particles were placed into an ultrasonic chamber fitted with a 20 kHz ultrasonic transducer on its base (Prosonix SL 10) as shown in FIG. 8. The chamber was heated to 40° C. using a thermoregulated water jacket. Ultrasound at 20 W power was applied between 30 minutes and 2 hour. The resulting particles were characterized by optical microscopy and DSC (Differential Scanning Calorimetry). The size of the particles were typically in the range of 1-7 μm. In this specific example d(10)=0.91 μm; d(50)=1.76 μm; d(90)=3.38 μm (see FIG. 4).", "key": {"[1]": {"settings": "spray dried particles after dry powder ultrasound treatment, FIG. 4"}}, "note": "Counter-ions that a name gives are not always drawn."}
{"smiles": "CC(Cc1ccc(O)cc1)NCC(O)c1cc(O)cc(O)c1", "note": "(stereo not shown) [Fenoterol hydrobromide]", "values": [{"measurement": "size of the particles", "setting": "spray dried particles after dry powder ultrasound treatment (20 kHz, 20 W, 40° C., 30 minutes to 2 hour), typical range", "result": "1-7 μm"}, {"measurement": "d(10)", "setting": "[1]", "result": 0.91, "unit": "μm"}, {"measurement": "d(50)", "setting": "[1]", "result": 1.76, "unit": "μm"}, {"measurement": "d(90)", "setting": "[1]", "result": 3.38, "unit": "μm"}]}
